Legend:
[1] = molecular target: T1, extracted human tau (aggregated tau, PHF) (Homo sapiens, UniProt P10636); test: Competitive radioligand binding assay with [3H]-T808 on aggregated tau preps from human AD brain; settings: for Ki: mean of at least two measurements with SD, calculated from IC50, KD PHF 6.275 nM, 10 nM RL; for IC50: radiolabel displacement of [3H]-T808, 10 nM, read-out: pIC50, binding to extracted human tau (converted)
T1 construct: Tau Ki; other: mean of at least two measurements with SD; other: radiolabel displacement of [3H]-T808, 10 nM
T1 sequence (P10636 623-695 limits assumed): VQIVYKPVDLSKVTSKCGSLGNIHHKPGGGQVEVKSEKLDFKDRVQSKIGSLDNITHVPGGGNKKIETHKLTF
Procedure: (§1) Enriched aggregated tau fractions were prepared according to a slightly modified version of the protocol described by Greenberg and Davies (Greenberg S G, Davies P. A preparation of Alzheimer paired helical filaments that display distinct tau proteins by polyacrylamide gel electrophoresis. Proc. Natl. Acad. Sci. 1990; 87: 5827-5831) using human AD brain tissue (occipital cortex with high tau fibril load). Briefly, frozen human AD brain samples (˜10 g) were homogenized with 10 vol of cold homogenization buffer (10 mM Tris, 800 mM NaCl, 1 mM EGTA, 10% sucrose, pH 7.4 containing PhosSTOP phosphatase and cOmplete EDTA-free protease inhibitor (Roche, Vilvoorde, Belgium)) on ice. After centrifugation at 27 000×g for 20 min at 4° C. the supernatant was recovered and 1% (w/v) N-lauroylsarcosine and 1% (v/v) 2-mercaptoethanol were added. The N-lauroylsarcosine/2-mercaptoethanol supernatant was incubated for 2 h at 37° C. while shaking on an orbital shaker. Subsequently, ultracentrifugation at 108 000×g for 1.5 h at room temperature enriched aggregated tau in the pellet. Supematant was removed and the pellet was carefully rinsed twice with a small amount of TBS (50 mM Tris, 150 mM NaCl, pH 7.4). Finally, the aggregated tau pellet was recovered in TBS and resuspended to ensure sample homogeneity. Small aliquots were stored at −80° C.
(§2) The competitive radioligand binding assays measure the binding of a radiolabeled reference ligand in the presence of a dose response concentration range of test compounds.
(§3) Briefly, aggregated tau preps were diluted to 100 μg protein/ml in PBS buffer with 5% ethanol. In a 96-well format, ^3H-T808 (specific activity; 32.97 Ci/mmol) was added at a final concentration of 10 nM to increasing amounts of test compound in the presence of 20 μg protein of aggregated tau prep. Nonspecific binding was defined as the number of counts remaining in the presence of 50 μM Thioflavin T (common beta sheet binder). After 2 h incubation at room temperature, the unbound ligand is removed by filtration of the binding mixtures over GF/B glass filters using a Filtermate 96 harvester instrument (Perkin Elmer, Zaventem, Belgium). The filters were washed three times with PBS buffer containing 20% ethanol. After overnight drying of the filter plate, Microscint O liquid (Perkin Elmer) was added and the amount of radiolabeled ligand bound to the fibrils is measured by liquid scintillation counting in a Topcount instrument (Packard Instrument Company, Connecticut, USA)
(§4) Values for half-maximal inhibitory concentration (IC50) were determined from displacement curves of at least two independent experiments using GraphPad Prism software (GraphPad Software, San Diego, Calif.).

[2] = system: extracted human tau (aggregated tau, PHF); test: as above; settings: Aβ Ki versus Tau Ki
Procedure: as §1, §2, §3, §4

[3] = molecular target: T2, extracted human amyloid-beta aggregates (Homo sapiens, UniProt P05067); test: Competitive radioligand binding assay with [3H]-AV-45 on amyloid plaque preps from human AD brain; settings: for Ki: calculated from IC50, KD Aβ 7.85 nM for 3H-AV45, 10 nM RL; for binding to extracted human amyloid-beta aggregates: up to 10 μM, radiolabel displacement of [3H]-AV-45
T2 construct: from tissue; host or cells: human AD brain, occipital cortex
T2 sequence (P05067 672-713 limits assumed): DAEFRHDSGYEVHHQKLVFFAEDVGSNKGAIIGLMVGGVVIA
Procedure: Enriched aggregated β-amyloid preps were prepared from frozen human AD brain samples (10 g—occipital cortex with high amyloid plaques load) that were homogenized with 7-fold vol of cold homogenization buffer (250 mM sucrose, 20 mM Tris base, 1 mM EDTA, 1 mM EGTA and PhosSTOP phosphatase and cOmplete EDTA-free protease inhibitor) on ice. After centrifugation at 27 000×g for 20 min at 4° C. cell debris was removed. Supematant containing amyloid plaques was aliquoted and stored at −80° C.
as §2, §4
To determine compound binding to aggregated β-amyloid a similar assay was put in place but with some minor modifications. Briefly, amyloid preps were diluted to 150 μg protein/ml in 50 mM Tris with 0.1% BSA and 5% ethanol. ^3H-AV-45 (florbetapir-specific activity; 45.95 Ci/mmol) was added at a final concentration of 10 nM to increasing amounts of test compound in the presence of 30 μg protein of amyloid plaques prep. Nonspecific binding was determined in the presence of 500 μM Thioflavin T. After 150 min incubation at room temperature, the binding mixtures were filtered over GF/B glass filters. The filters were washed three times with PBS buffer containing 20% ethanol. Subsequent steps were identical to those described for the aggregated tau preps.

[4] = MicroPET imaging, Wistar rats; type: in vivo; settings: baseline scan, whole brain, IV 50 MBq
Procedure: Dynamic 120 min microPET scans were performed on a Focus™ 220 microPET scanner (Concorde Microsystems, Konxville, Tenn., USA) on three female Wistar rats simultaneously, which were kept under gas anesthesia during the whole procedure (2.5% isoflurane in 02 at 1 L/min flow rate). The head of the animals was placed central, in the field of view, of the microPET scanner. Scans were acquired in list mode and acquisition data were Fourier rebinned in 24 time frames (4×15 s, 4×60 s, 5×180 s, 8×300 s, 3×600 s). Data, which were 3D maximum a posteriori (3D-MAP) reconstructed, were manually aligned with a rat brain [^18F]FDG template in Paxinos coordinates using an affine transformation, to allow predefined volumes of interest (VOIs) analysis. Time-activity curves (TACs) of the whole brain were generated using VOIs with PMOD software (v 3.2, PMOD Technologies Ltd., Zdtrich, Switzerland). Radioactivity concentration in the brain was expressed as standardized uptake value (SUV, calculated as (radioactivity in Bq in brain/mL)/(total injected dose (Bq)/body weight in g)) as a function of time after tracer injection. Scans were started immediately after IV injection of 50 MBq [^18F]Co. No. 1 or [^18F]T807 (n=3/tracer). […]

[5] = MicroPET imaging, rhesus monkey (experiment 1); type: in vivo, rhesus monkey (macaca mulatta); settings: baseline scan
Procedure: A dynamic 120-min microPET scan with [^18F]Co. No. 1 or [^18F]T807 was performed on a Focus™ 220 microPET scanner (Concorde Microsystems, Knoxville, Tenn., USA) on, respectively, a female rhesus monkey (9 year-old macaca mulatta, 5.3 kg) and a male rhesus monkey (6 year-old macaca mulatta, 7.6 kg), that was sedated with ketamine (Ketalar®) and xylazine (Rompun®) via intramuscular (IM) injection. During scanning the monkey received repeatedly an additional dose of ketamine/xylazine via IV injection. The O2 saturation in the blood, the breathing frequency and heartrate were monitored during the entire experiment. The head of the animal was placed central, in the field of view, of the microPET scanner. Scans were acquired in list mode and acquisition data were Fourier rebinned in 24 time frames (4×15 s, 4×60 s, 5×180 s, 8×300 s, 3×600 s). Data were reconstructed using a 3D maximum a posteriori (3D-MAP) iterative reconstruction. TACs of the whole brain, corpus callosum, cerebellum and entorhinal cortex were generated using VOIs with PMOD software. Radioactivity concentration in the brain is expressed as SUV as a function of time after tracer injection (FIGS. 5a and 5b). Scans were started immediately after IV injection of 185 MBq of [^18F]Co. No. 1 of [^18F]T807 via the vena saphena of the right leg. […]

[6] = MicroPET imaging, rhesus monkey (experiment 2); type: in vivo, rhesus monkey (Macaca mulatta); settings: baseline scan
Procedure: A dynamic 120-min μPET scan with [^18F]Co. No. 1 or [^18F]T807 was performed with a Focus 220 μPET scanner on a male rhesus monkey (6 y-old Macaca mulatta, 7.6 kg), that was sedated with ketamine (Ketalar®) and xylazine (Rompun®) via intramuscular (IM) injection. During scanning the monkey received repeatedly an additional dose of ketamine/xylazine via i.v. injection. O2 saturation in blood, breathing frequency and heartbeat frequency were monitored during the entire experiment. The head of the animal was placed central in the field of view of the μPET scanner. Scans were acquired in list mode and Fourier rebinned in 24 time frames (4×15 s, 4×60 s, 5×180 s, 8×300 s, 3×600 s). Data were reconstructed using a 3D maximum a posteriori (3D-MAP) iterative reconstruction. TACs of the whole brain were generated using VOIs with PMOD software. Radioactivity concentration in the brain is expressed as SUV as a function of time after tracer injection. Scans were started immediately after i.v. injection of 185 MBq of [^18F]Co. No. 1 or [^18F]T807 via the vena saphena of the right leg. Results of the 120-min baseline scan of [^18F]Co. No. 1 and [^18F]T807 are shown in FIGS. 7a and 7b, respectively. […] TACs of the baseline scan of [^18F]T807 in the brain show a slower initial brain uptake (SUV value of ˜1.3, time to peak uptake: 15 min) and wash-out (FIG. 8). […]

[7] = system: neurofibrillary tangles (NFTs) in AD brain slices; test: Autoradiography blocking study of [18F]Co. No. 1 on human AD brain slices; type: binding; settings: 1 μM cold blocker, Braak stage V-VI slices
Procedure: Air-dried frozen, 20-μm-thick slices of an AD-patient (Braak stage V-VI) were incubated for 60 min with [^18F]Co. No. 1 (7.4 kBq/500 JpL per section) and subsequently washed with mixtures of phosphate buffered saline (PBS) and ethanol as described elsewhere (Xia C F, Arteaga J, Chen G, et al. [(18)F]T807, a novel tau positron emission tomography imaging agent for Alzheimer's disease. Alzheimers Dement. 2013, 1-11, doi: 10.1016/i.ialz.2012.11.008). To assess specificity of binding, slices were incubated with tracer in the presence of 1 μM of authentic T808 or […].
No. 1. After drying, slices were exposed to a phosphor storage screen (super-resolution screen, Perkin Elmer). Screens were read in a Cyclone Plus system (Perkin Elmer, Waltham, Mass., U.S.A.) and analyzed using Optiquant software. Results are expressed as digital light units per square mm (DLU/mm^2). Adjacent AD slices were immunostained with anti-tau (AT8) and anti-Aβ antibodies (AG8), to correlate with [^18F]Co. No. 1 binding. […] The binding pattern corresponds well with the Tau pathology as detected with AT8 IHC on adjacent slides (see FIG. 1). To assess the specificity of the tracer binding to neurofibrillary tangles (NFTs), blocking studies with authentic Co. No. 1 and T808 were performed. […] Blocking percentages were calculated as (DLU/mm^2 in the presence of […] blocker)/(DLU/mm^2 tracer only).

Compound	Ki [1]	IC50 [1]	Selectivity (ratio) [2]	Ki [3]	binding to extracted human amyloid-beta aggregates [3]	initial brain uptake, SUV value in the brain [4]	wash-out from brain [5]	initial brain uptake, SUV value ([5]; brain, IV 185 MBq)	time to peak uptake ([6]; brain)	initial brain uptake, SUV value ([6]; i.v. 185 MBq, male monkey)	inhibition of [18F]Co. No. 1 binding to AD brain slices [7]
Fc1ccc(-c2ccc3c(c2)[nH]c2ccncc23)cn1 [[^18F]T807, 7-(6-fluoropyridin-3-yl)-5H-pyrido[4,3-b]indole]						~1.6	slower wash-out	~1.3	15 min	~1.3	
Cc1cc(Nc2ccc3nc(F)ccc3n2)ccn1 [Co. No. 1]	7.9 ± 2.5 nM	20 nM	>540	> 4400 nM	no measurable binding						99%

Other lines, results leading:

Ki [1]	IC50 [1]	Selectivity (ratio) [2]	Ki [3]	binding to extracted human amyloid-beta aggregates [3]	initial brain uptake, SUV value in the brain [4]	wash-out from brain [5]	initial brain uptake, SUV value ([5]; brain, IV 185 MBq)	time to peak uptake ([6]; brain)	initial brain uptake, SUV value ([6]; i.v. 185 MBq, male monkey)	inhibition of [18F]Co. No. 1 binding to AD brain slices [7]	Compound
11.3 ± 2.8 nM	25.1 nM	>380	> 4400 nM	no measurable binding							Fc1ccc2nc(Nc3ccncc3)ccc2n1 [Co. No. 3]
										98%	FCCC1CCN(c2ccn3c(n2)nc2ccccc23)CC1 [T808, 2-[4-(2-fluoroethyl)-1-piperidinyl]-pyrimido[1,2-a]benzimidazole, reference compound]
13.5 ± 2.2 nM	31.6 nM	>325	> 4400 nM	no measurable binding							Cc1cnccc1Nc1ccc2nc(F)ccc2n1 [Co. No. 2]

From patent US20190038784A1, “TAU PET IMAGING LIGANDS” (Janssen Pharmaceutica NV, priority 2016, published 2019)
